Data as given in article PMC9791819 (Biochemistry and Biophysics Reports, 2022).

Key:
[1] = biological target: T1, BiCMKEngA (Bifidobacterium longum, UniProt A0ACD7UKP5); assay: isothermal titration calorimetry; format: binding; conditions: 10 mM Tris pH 8.0, 300 mM NaCl, 50 mM MgCl2, 25 °C; with or without 1 mM CMP
T1 sequence (A0ACD7UKP5 1-709): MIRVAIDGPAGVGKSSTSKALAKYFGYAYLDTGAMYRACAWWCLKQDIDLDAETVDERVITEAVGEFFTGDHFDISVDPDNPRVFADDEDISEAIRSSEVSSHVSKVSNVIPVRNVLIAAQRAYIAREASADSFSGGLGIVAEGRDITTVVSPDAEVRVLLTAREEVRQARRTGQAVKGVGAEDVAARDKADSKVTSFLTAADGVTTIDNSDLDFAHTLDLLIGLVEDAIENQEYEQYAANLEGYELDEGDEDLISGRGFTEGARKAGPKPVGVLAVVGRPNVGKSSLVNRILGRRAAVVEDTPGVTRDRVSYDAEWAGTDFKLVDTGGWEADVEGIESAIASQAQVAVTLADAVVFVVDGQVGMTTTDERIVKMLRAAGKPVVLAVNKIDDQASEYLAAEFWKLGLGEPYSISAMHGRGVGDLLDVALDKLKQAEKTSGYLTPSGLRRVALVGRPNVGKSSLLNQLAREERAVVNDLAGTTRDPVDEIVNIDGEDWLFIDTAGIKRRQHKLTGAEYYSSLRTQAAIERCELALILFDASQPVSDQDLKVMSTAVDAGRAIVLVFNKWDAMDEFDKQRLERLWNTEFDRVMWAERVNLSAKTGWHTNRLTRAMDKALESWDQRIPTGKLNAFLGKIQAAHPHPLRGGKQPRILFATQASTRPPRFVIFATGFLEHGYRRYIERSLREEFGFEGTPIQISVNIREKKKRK

[2] = biological target: T2, BiEngA (Bifidobacterium longum, UniProt A0ACD7UKP5); assay: isothermal titration calorimetry; format: binding; conditions: 10 mM Tris pH 8.0, 300 mM NaCl, 50 mM MgCl2, 25 °C
T2 sequence (A0ACD7UKP5 222-709 limits assumed): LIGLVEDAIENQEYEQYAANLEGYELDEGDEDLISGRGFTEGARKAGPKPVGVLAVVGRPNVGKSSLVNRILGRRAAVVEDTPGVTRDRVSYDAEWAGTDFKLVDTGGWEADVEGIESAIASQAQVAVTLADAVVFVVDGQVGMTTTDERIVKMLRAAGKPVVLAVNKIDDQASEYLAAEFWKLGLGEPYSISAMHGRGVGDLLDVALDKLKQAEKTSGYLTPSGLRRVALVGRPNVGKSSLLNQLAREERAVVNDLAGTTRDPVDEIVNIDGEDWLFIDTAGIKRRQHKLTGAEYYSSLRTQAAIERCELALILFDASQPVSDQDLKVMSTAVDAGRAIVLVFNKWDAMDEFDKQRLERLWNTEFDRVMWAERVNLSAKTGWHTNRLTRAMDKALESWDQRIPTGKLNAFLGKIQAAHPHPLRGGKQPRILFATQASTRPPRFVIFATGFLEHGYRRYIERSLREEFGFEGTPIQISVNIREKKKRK

SMILES	KD [1]	KD [2]
Nc1ncnc2c1ncn2[C@@H]1O[C@H](COP(=O)(O)OP(=O)(O)OP(=O)(O)O)[C@@H](O)[C@H]1O [ATP]	Relative dissociation constants of the full length and individual domains for ATP and GTP	
Nc1nc2c(ncn2[C@@H]2O[C@H](COP(=O)(O)OP(=O)(O)OP(=O)(O)O)[C@@H](O)[C@H]2O)c(=O)[nH]1 [GTP]		the KD values for GTP, as determined from ITC experiments, were of the similar order
